The source of these data is ChEMBL document CHEMBL1201862, “PubChem BioAssay data set” (2004).

Test systems include DU-145; LOX IMVI; M14; MDA-MB-435; SF-268; RXF 393; SR; ACHN; CCRF-CEM; BT-549; MDA-N; EKVX; A549; SF-539; SNB-19; A498; HOP-62; SN12C; NCI-H522; SK-MEL-2.
Assay in all cases: NCI anticancer screen, dose series, 48 h

Each structure is given as a SMILES string.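 1) Cells in 96-well plates. 2) Compound, 48 h, 5 concentrations. 3) Linear interpolation between surrounding doses. 4) Unreached endpoint = highest concentration. At the GI50, growth is halved.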 Activity calls are given as the source filed them. Cut-off read from the data, not from the text of the source: active = GI50 up to about 1.1 µM and inactive = higher.

For `CC1NC(C(=O)O)Cc2cc(O)c(O)cc21` (stereo not drawn), the GI50 in the experiment with DU-145, in the experiment on LOX IMVI, in the experiment on M14, in the experiment with MDA-MB-435, in the experiment on SF-268 and in the experiment with RXF 393 was > 100 µM (inactive) in each case. For the same compound, the GI50 was > 100 µM (inactive) in the experiment with SR; > 100 µM (inactive) with ACHN; 91.2 µM (inactive) with CCRF-CEM; > 100 µM (inactive) in the experiment with BT-549; > 100 µM (inactive) in the experiment on MDA-N; > 100 µM (inactive) with EKVX. The GI50 in the experiment with A549, in the experiment on SF-539, with SNB-19, with A498, with HOP-62 and in the experiment on SN12C was > 100 µM (inactive) throughout. Moreover, the GI50 in the experiment with NCI-H522 and in the experiment with SK-MEL-2 was > 100 µM (inactive) in each case.

For `COc1cccc2c1C(CO)N1C(C#N)C3CC(C(=O)O)C(C1C2)N3C` (stereo not drawn), the GI50 in the experiment with DU-145 is 0.481 µM (active); with LOX IMVI, 1.95 µM (inactive); in the experiment with M14 it was 4.37 µM (inactive); with MDA-MB-435, 0.349 µM (active); in the experiment with SF-268, 1.85 µM (inactive); in the experiment with RXF 393, 1.27 µM (inactive). For the same compound, the GI50 with SR was 2.08 µM (inactive); in the experiment with ACHN, 3.36 µM (inactive); in the experiment with CCRF-CEM it was 1.1 µM (active); in the experiment on BT-549, 0.213 µM (active); in the experiment on MDA-N, 0.273 µM (active); in the experiment with EKVX, 6.19 µM (inactive). Also, the GI50 with A549 was 7.52 µM (inactive); with SF-539, 1.41 µM (inactive); in the experiment with SNB-19, 2.62 µM (inactive); in the experiment on A498, 2.77 µM (inactive); in the experiment on SN12C, 1.64 µM (inactive); with NCI-H522, 0.0615 µM (active). The GI50 in the experiment on SK-MEL-2 is 1.21 µM (inactive).

Turning to `CCCCn1c2c(n(CCCC)c1=S)-c1c(n(CCCC)c(=S)n1CCCC)SSSS2`, the GI50 was 5.42 µM (inactive) in the experiment on DU-145; 2.03 µM (inactive) in the experiment on LOX IMVI; 3.92 µM (inactive) with M14; 2.41 µM (inactive) in the experiment with MDA-MB-435; 3.44 µM (inactive) in the experiment on SF-268; 2.7 µM (inactive) in the experiment on RXF 393. The GI50 in the experiment on SR was 0.397 µM (active); in the experiment with ACHN, 0.966 µM (active); with CCRF-CEM, 0.0957 µM (active); in the experiment on BT-549 it was 0.973 µM (active); in the experiment on MDA-N, 2.84 µM (inactive); with EKVX it was 1.31 µM (inactive). The GI50 in the experiment on A549 is 26.7 µM (inactive); in the experiment on SF-539 it was 0.783 µM (active); in the experiment on SNB-19, 3.86 µM (inactive); in the experiment on A498, > 47.2 µM (inactive); in the experiment on HOP-62, 6.28 µM (inactive); with SN12C, 3.1 µM (inactive). Moreover, the GI50 with NCI-H522 is 0.0785 µM (active); in the experiment on SK-MEL-2, 2.09 µM (inactive).

Regarding `N#CC1(C#N)[C@@H]2CCC=C(Sc3ccccc3)[C@@H]21`, the GI50 in the experiment with DU-145 is 16 µM (inactive); in the experiment with LOX IMVI, 13.9 µM (inactive); with M14, 13.2 µM (inactive); with MDA-MB-435, 12.9 µM (inactive); in the experiment with SF-268 it was 20.1 µM (inactive); with RXF 393, 13 µM (inactive). Besides, the GI50 in the experiment on SR was 13.1 µM (inactive); in the experiment on ACHN it was 15.5 µM (inactive); with CCRF-CEM it was 5.71 µM (inactive); in the experiment on BT-549, 23 µM (inactive); in the experiment on MDA-N it was 13.9 µM (inactive); in the experiment with EKVX, 18.5 µM (inactive). Besides, the GI50 with A549 is 23.4 µM (inactive); with SF-539 it was 15.5 µM (inactive); in the experiment on SNB-19 it was 23.9 µM (inactive); with A498, 31.7 µM (inactive); in the experiment on SN12C it was 16.4 µM (inactive); in the experiment with NCI-H522, 10.8 µM (inactive). Further, the GI50 in the experiment with SK-MEL-2 is 14.6 µM (inactive).

For the compound `C(=C\c1cccc(/C=C/c2ccccn2)n1)/c1ccccn1`, the GI50 in the experiment with DU-145 was > 100 µM (inactive); in the experiment on LOX IMVI it was 66.4 µM (inactive); in the experiment on M14, 43.3 µM (inactive); with MDA-MB-435, 83.8 µM (inactive); in the experiment with SF-268, 20.2 µM (inactive); in the experiment with RXF 393 it was 62.1 µM (inactive). Further, the GI50 is 62.2 µM (inactive) in the experiment with SR; 35.2 µM (inactive) with ACHN; 37 µM (inactive) in the experiment on CCRF-CEM; 18.7 µM (inactive) in the experiment on BT-549; 68.2 µM (inactive) in the experiment on MDA-N; > 100 µM (inactive) with EKVX. For the same compound, the GI50 is > 100 µM (inactive) with A549; > 100 µM (inactive) in the experiment on SF-539; > 100 µM (inactive) in the experiment on SNB-19; 0.971 µM (active) in the experiment on A498; > 100 µM (inactive) in the experiment on HOP-62; 60.7 µM (inactive) in the experiment with SN12C. Also, the GI50 with NCI-H522 was 13.4 µM (inactive); with SK-MEL-2, > 100 µM (inactive).

Take `c1ccc(CC(Nc2cccnc2)c2ccccc2)cc1` (stereo not drawn): the GI50 in the experiment with DU-145 was 29.6 µM (inactive); with LOX IMVI it was 16.2 µM (inactive); in the experiment on M14, 17.9 µM (inactive); in the experiment with MDA-MB-435 it was 22.9 µM (inactive); in the experiment with SF-268, 40.6 µM (inactive); with RXF 393 it was 18.6 µM (inactive). Further, the GI50 in the experiment with SR is 23.9 µM (inactive); in the experiment on ACHN it was 37.7 µM (inactive); in the experiment with CCRF-CEM, 16.4 µM (inactive); in the experiment on BT-549, 25.2 µM (inactive); in the experiment with MDA-N, 20.1 µM (inactive); in the experiment on EKVX it was 24.2 µM (inactive). Further, the GI50 in the experiment on A549 is 25.6 µM (inactive); in the experiment with SF-539, 20.6 µM (inactive); in the experiment on SNB-19, 30.8 µM (inactive); with A498, 34 µM (inactive); with HOP-62 it was 24.5 µM (inactive); with SN12C, 20.6 µM (inactive). Besides, the GI50 was 22.4 µM (inactive) in the experiment on NCI-H522 and 18.4 µM (inactive) with SK-MEL-2.

Consider `Cc1nc2c(Cl)cc(Cl)cc2c(Cl)c1CCCl`, for which the GI50 in the experiment on DU-145 is > 100 µM (inactive); with LOX IMVI, > 100 µM (inactive); in the experiment on M14 it was > 100 µM (inactive); in the experiment with MDA-MB-435, 74.6 µM (inactive); in the experiment with SF-268, 75.2 µM (inactive); with RXF 393, 22.8 µM (inactive). Moreover, the GI50 in the experiment with SR was 79.1 µM (inactive); with ACHN it was > 100 µM (inactive); with CCRF-CEM, 62.8 µM (inactive); in the experiment on BT-549, 51.1 µM (inactive); with MDA-N, > 100 µM (inactive); with EKVX, 78.2 µM (inactive). Besides, the GI50 in the experiment with A549 was 78.7 µM (inactive); in the experiment on SF-539, > 100 µM (inactive); in the experiment with SNB-19 it was 56.4 µM (inactive); in the experiment with A498 it was 72.4 µM (inactive); with HOP-62, > 100 µM (inactive); in the experiment on SN12C it was > 100 µM (inactive). Further, the GI50 in the experiment on NCI-H522 is 87.1 µM (inactive); with SK-MEL-2, 99.5 µM (inactive).

`Oc1ccc(O)c(CNc2ccc(C(O)C(F)(F)F)cc2)c1` (stereo not drawn): the GI50 in the experiment on DU-145 is 14.5 µM (inactive); with LOX IMVI, 14.2 µM (inactive); with M14, 14.8 µM (inactive); in the experiment on MDA-MB-435, 11.9 µM (inactive); in the experiment on SF-268 it was 22.2 µM (inactive); in the experiment with RXF 393 it was 12.5 µM (inactive). The GI50 with SR was 6.3 µM (inactive); in the experiment on ACHN, 13.7 µM (inactive); with CCRF-CEM it was 3.21 µM (inactive); with BT-549 it was 12.1 µM (inactive); in the experiment on MDA-N, 9.86 µM (inactive); in the experiment with EKVX, 14.5 µM (inactive). Besides, the GI50 in the experiment with A549 was 31.6 µM (inactive); with SF-539, 4.85 µM (inactive); with SNB-19 it was 44.9 µM (inactive); with A498, 41.4 µM (inactive); in the experiment with HOP-62 it was 15.6 µM (inactive); in the experiment with SN12C it was 18.1 µM (inactive). Besides, the GI50 in the experiment with NCI-H522 was 1.66 µM (inactive); with SK-MEL-2 it was 20.1 µM (inactive).

With `CC1CCC2(C(=O)O)CCC3(C)C(=CCC4C5(C)CC(O)C(O)C(C)(CO)C5C(O)CC43C)C2C1C` (stereo not drawn), the GI50 with DU-145 is > 100 µM (inactive); with LOX IMVI, 20.5 µM (inactive); in the experiment on M14 it was > 100 µM (inactive); with MDA-MB-435, 45.6 µM (inactive); in the experiment with SF-268, 28.5 µM (inactive); in the experiment on RXF 393, 31.3 µM (inactive). Moreover, the GI50 in the experiment on SR was 22.8 µM (inactive); in the experiment on ACHN, > 100 µM (inactive); in the experiment on CCRF-CEM, 19 µM (inactive); in the experiment on BT-549, 31.7 µM (inactive); in the experiment with MDA-N it was 11.1 µM (inactive); with EKVX, > 89.3 µM (inactive). For the same compound, the GI50 in the experiment on A549 was > 100 µM (inactive); in the experiment on SF-539 it was 39 µM (inactive); with SNB-19 it was 22.7 µM (inactive); in the experiment on A498 it was 24.3 µM (inactive); with HOP-62, 45.4 µM (inactive); in the experiment on SN12C, 2.12 µM (inactive). For the same compound, the GI50 with NCI-H522 is 17.5 µM (inactive); in the experiment on SK-MEL-2, 19.4 µM (inactive).

Turning to `CC(C)(C)c1cc(C(C)(C)C)c(SC2OC(CO)C(O)C(O)C2O)c(O)c1O` (stereo not drawn), the GI50 in the experiment with DU-145 was 13.7 µM (inactive); with LOX IMVI, 8.95 µM (inactive); in the experiment on M14, 18.3 µM (inactive); with MDA-MB-435, 4.94 µM (inactive); in the experiment with SF-268 it was 6.97 µM (inactive); in the experiment with RXF 393, 0.36 µM (active). The GI50 in the experiment on SR was 4.52 µM (inactive); in the experiment with ACHN, 6.53 µM (inactive); in the experiment with CCRF-CEM it was 5.27 µM (inactive); in the experiment with BT-549, 10.6 µM (inactive); with MDA-N it was 4.12 µM (inactive); in the experiment with EKVX it was 10.8 µM (inactive). In addition, the GI50 is 3.84 µM (inactive) with A549; 3.48 µM (inactive) in the experiment on SF-539; 8.02 µM (inactive) in the experiment on SNB-19; 14.7 µM (inactive) with A498; 13.2 µM (inactive) in the experiment on HOP-62; 10.8 µM (inactive) in the experiment on SN12C. In addition, the GI50 in the experiment with NCI-H522 was 7.21 µM (inactive); with SK-MEL-2, 11.1 µM (inactive).
